Test results taken from BigSolDB 2.1.

CCOC(=O)Cc1c(C(=O)OCC)sc(N)c1C#N
solubility (mole fraction)
Conditions | 273.15 K | 278.15 K | 283.15 K | 288.15 K | 293.15 K | 298.15 K | 303.15 K | 308.15 K | 313.15 K | 318.15 K
in acetone | 0.0446 | 0.0499 | 0.0558 | 0.0628 | 0.071 | 0.0801 | 0.0902 | 0.101 | 0.113 | 0.126
in acetonitrile | 0.0082 | 0.0102 | 0.0125 | 0.0151 | 0.0185 | 0.0225 | 0.0268 | 0.0323 | 0.0385 | 0.0455
in ethanol | 0.0031 | 0.00399 | 0.00505 | 0.00637 | 0.00798 | 0.00998 | 0.0123 | 0.015 | 0.0186 | 0.0227
in ethyl acetate | 0.0237 | 0.0257 | 0.0286 | 0.0318 | 0.0349 | 0.0386 | 0.0427 | 0.0473 | 0.0519 | 0.0567
in isopropanol | 0.00232 | 0.00307 | 0.00396 | 0.00513 | 0.00656 | 0.00845 | 0.0107 | 0.0134 | 0.0168 | 0.0213
in methanol | 0.00483 | 0.00609 | 0.00759 | 0.00947 | 0.0118 | 0.0144 | 0.0176 | 0.0214 | 0.0261 | 0.0313
in n-butanol | 0.00204 | 0.00266 | 0.00343 | 0.00438 | 0.00559 | 0.0071 | 0.0091 | 0.0114 | 0.0144 | 0.0177
in n-propanol | 0.00217 | 0.00286 | 0.0036 | 0.00471 | 0.00618 | 0.00763 | 0.00961 | 0.012 | 0.0151 | 0.0188
in toluene | 0.000402 | 0.00052 | 0.000664 | 0.000858 | 0.00109 | 0.00139 | 0.00171 | 0.00215 | 0.00265 | 0.00323
